{"source": "patent US20110294836A1", "about": "“ARYL GPR119 AGONISTS AND USES THEREOF” (METABOLEX, INC., priority 2008, published 2011)"}
{"molecular_target": "T1, GPR119 (Homo sapiens, UniProt Q8TDV5)", "T1 construct": "expressed in transfected cells", "T1 sequence (Q8TDV5 1-335)": "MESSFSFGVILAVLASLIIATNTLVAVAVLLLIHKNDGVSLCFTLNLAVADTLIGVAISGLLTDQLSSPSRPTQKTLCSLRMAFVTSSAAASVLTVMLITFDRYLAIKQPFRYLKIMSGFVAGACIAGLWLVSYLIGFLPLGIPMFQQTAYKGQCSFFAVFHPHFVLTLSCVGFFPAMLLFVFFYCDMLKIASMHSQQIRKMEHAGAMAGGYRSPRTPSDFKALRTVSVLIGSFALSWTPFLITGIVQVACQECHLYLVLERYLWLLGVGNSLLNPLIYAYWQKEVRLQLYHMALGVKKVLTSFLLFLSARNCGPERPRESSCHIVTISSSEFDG", "test": "Stimulation of cAMP in CHO cell line stably expressing GPR119 (HTRF cAMP assay)", "type": "cell-based", "details": "GPR119 stably expressing CHO cells, 30 minutes, relative to maximal activity (100%) of 5-Ethyl-2-{4-[4-(4-tetrazol-1-yl-phenoxymethyl)-thiazol-2-yl]-piperidin-1-yl}-pyrimidine", "procedure": "This assay was developed using a stable cell line expressing GPR119, generated as follows. GPR119 (co-pending, co-owned patent application U.S. Ser. No. 11/964,461) was cloned into Gateway pDEST 40vector (Invitrogen), using the Gateway cloning system (invitrogen) according to the manufacturer's instructions. A stable cell line was generated by transfecting a 10 cm plate of CHO cells (source) with Bug of this construct using Transit-CHO transfection kit (Minis). CHO cells were plated the day prior to transfection at a density of 3,000,000 cells/plate. Clones were selected using the antibiotic G418 at 500 ug/ml. 23 clones were picked and assayed for the expression of the receptor by measuring changes in intracellular cAMP levels in response to a known GPR119 agonist.\nTo measure cAMP activity in response to GPR119 agonist, the clones were plated in 96 well plates at 17500 cells per well. On the day after plating, cells were incubated with the GPR119 agonist at 10 μM for 30 minutes in Ham's F12 Media (Gibco) with 0.04% DMSO. cAMP was measured using the cAMP dynamic kit from Cis Bio (Bedford, Mass.) according to the manufacturer's instructions. Briefly, cells were lysed, and cAMP levels determined by competitive immunoassay using D2 labeled cAMP, and europium cryptate tagged anti cAMP antibody. When in close proximity, the D2 and europium cryptate undergo fluorescence resonance energy transfer (FRET), which is measured as a fluorescence ratio (665 nm/620 nm). Unlabelled cAMP in the cell lysate competed with the D2 labeled cAMP for the europium crypate labeled antibody. The resulting decrease in FRET signal corresponded to intracellular cAMP levels. Fluorescence was read on a BMG Labtech PHERAstar, software version 1.50.\nThe clone with the greatest response to GPR119 agonist was selected for the screening assay.\nCompounds were dissolved in 100% DMSO to a concentration of […] to provide stock solutions. To determine activity against GPR119, compounds were incubated with GPR119 stably expressing cells (described above), at 6-8 concentrations ranging from 0.00003 to 10 micromolar, in 96 well plates, in 50 ul of Ham's F12 media for 30 minutes. Cells were plated at 17500 cells per well 1 day before running the assay. All compounds were also screened against the parental CHO cells. cAMP was measured using the cAMP dynamic kit from Cis Bio (Bedford, Mass.), according to the manufacturer's instructions. Briefly, cells were lysed and cAMP levels determined by competitive immunoassay using D2 labeled cAMP, and europium cryptate tagged anti cAMP antibody. When in close proximity, the D2 and europium cryptate undergo fluorescence resonance energy transfer (FRET), which is measured as a fluorescence ratio (665 nm/620 nm). Unlabelled cAMP in the cell lysate competed with the D2 labeled cAMP for the europium crypate labeled antibody. The resulting decrease in FRET signal corresponded to intracellular cAMP levels.\nTo determine percent activity for a tested compound, the FRET signal value obtained at a particular concentration are compared to the Maximal FRET signal value obtained for 5-Ethyl-2-{4-[4-(4-tetrazol-1-yl-phenoxymethyl)-thiazol-2-yl]-piperidin-1-yl}-pyrimidine. The maximal activity of 5-Ethyl-2-{4-[4-(4-tetrazol-1-yl-phenoxymethyl)-thiazol-2-yl]-piperidin-1-yl}-pyrimidine is designated as 100% activity. Typically, the concentration of 5-Ethyl-2-{4-[4-(4-tetrazol-1-yl-phenoxymethyl)-thiazol-2-yl]-piperidin-1-yl}-pyrimidine in the assay was approximately 0.1 μM. The synthesis of 5-Ethyl-2-{4-[4-(4-tetrazol-1-yl-phenoxymethyl)-thiazol-2-yl]-piperidin-1-yl}-pyrimidine is disclosed in co-owned pending U.S. patent application Ser. No. 11/964,461, herein incorporated by reference. Activities of compounds in Table 1 below are expressed as % activity at 3 μM compound compared to the maximal activity of 5-Ethyl-2-{4-[4-(4-tetrazol-1-yl-phenoxymethyl)-thiazol-2-yl]-piperidin-1-yl}-pyrimidine at 3 μM.", "units": {"% Activity at 3 μM Compound": "%"}}
{"smiles": "CC(C)(C)OC(=O)N1CCC(c2cc(COc3ccc(-n4cnnn4)cc3F)ccn2)CC1", "note": "[Example 14, tert-Butyl 4-(4-((2-fluoro-4-(1H-tetrazol-1-yl)phenoxy)methyl)pyridin-2-yl)piperidine-1-carboxylate]", "% Activity at 3 μM Compound": 73}
{"smiles": "CC(C)(C)OC(=O)N1CCC(c2cccc(OCc3ccc(S(C)(=O)=O)cc3)c2)CC1", "note": "[Example 9, tert-Butyl 4-(3-(4-(methylsulfonyl)benzyloxy)phenyl)piperidine-1-carboxylate]", "% Activity at 3 μM Compound": 61}
{"smiles": "CCc1cnc(N2CCC(c3cccc(OCc4ccc(S(C)(=O)=O)cc4)c3)CC2)nc1", "note": "[Example 10, 5-ethyl-2-(4-(3-(4-(methylsulfonyl)benzyloxy)phenyl)piperidin-1-yl)pyrimidine]", "% Activity at 3 μM Compound": 59}
{"smiles": "CC(C)(C)OC(=O)N1CCC(c2cccc(COc3ccc(-n4cnnn4)cc3F)n2)CC1", "note": "[Example 4, tert-Butyl 4-(6-((2-fluoro-4-(1H-tetrazol-1-yl)phenoxy)methyl)pyridin-2-yl)piperidine-1-carboxylate]", "% Activity at 3 μM Compound": 61}
{"smiles": "Fc1cc(-n2cnnn2)ccc1OCc1cccc(C2CCN(c3ncc(C(F)(F)F)cn3)CC2)n1", "note": "[Example 6, 2-(4-(6-((2-fluoro-4-(1H-tetrazol-1-yl)phenoxy)methyl)pyridin-2-yl)piperidin-1-yl)-5-(trifluoromethyl)pyrimidine]", "% Activity at 3 μM Compound": 63}
{"smiles": "CC(C)(C)OC(=O)N1CCC(c2cccc(COc3ccc(S(C)(=O)=O)cc3F)n2)CC1", "note": "[Example 2, tert-Butyl 4-(6-((2-fluoro-4-(methylsulfonyl)phenoxy)methyl)pyridin-2-yl)piperidine-1-carboxylate]", "% Activity at 3 μM Compound": 59}
{"smiles": "CC(C)(C)OC(=O)N1CCC(c2nccc(COc3ccc(-n4cnnn4)cc3F)n2)CC1", "note": "[Example 7, tert-Butyl 4-(4-((2-fluoro-4-(1H-tetrazol-1-yl)phenoxy)methyl)pyrimidin-2-yl)piperidine-1-carboxylate]", "% Activity at 3 μM Compound": 70}
{"smiles": "CCc1cnc(N2CCC(c3cccc(COc4ccc(-n5cnnn5)cc4F)n3)CC2)nc1", "note": "[Example 5, 5-ethyl-2-(4-(6-((2-fluoro-4-(1H-tetrazol-1-yl)phenoxy)methyl)pyridin-2-yl)piperidin-1-yl)pyrimidine]", "% Activity at 3 μM Compound": 73}
{"smiles": "CC(C)c1noc(C(=O)N2CCC(c3cccc(COc4ccc(S(C)(=O)=O)cc4F)n3)CC2)n1", "note": "[Example 13, (4-(6-((2-fluoro-4-(methylsulfonyl)phenoxy)methyl)pyridin-2-yl)piperidin-1-yl)(3-isopropyl-1,2,4-oxadiazol-5-yl)methanone]", "% Activity at 3 μM Compound": 33}
